Test results from article PMC5218480 (PLoS ONE, 2017).

Test system: MV-4-11 cells
Experiment: Gene expression microarray analysis (Affymetrix PrimeView) and GSEA
Format: cell-based, human
Set-up: RFU PODN (11730768_x_at) / Fold change /veh PODN (11730768_x_at) / RFU LINC00158 (11744669_a_at) / Fold change /veh LINC00158 (11744669_a_at) / RFU DUSP10 (11751237_a_at) / Fold change /veh DUSP10 (11751237_a_at) / RFU ID3 (11757404_x_at) / Fold change /veh ID3 (11757404_x_at) / RFU PLEKHG5 (11737974_s_at) / Fold change /veh PLEKHG5 (11737974_s_at) / RFU LRRC4B (11730491_at) / Fold change /veh LRRC4B (11730491_at) / RFU GIMAP4 (11747438_a_at) / Fold change /veh GIMAP4 (11747438_a_at) / RFU KRT8 (11758183_x_at) / Fold change /veh KRT8 (11758183_x_at) / RFU CNN1 (11734310_a_at) / Fold change /veh CNN1 (11734310_a_at) / RFU VPS37D (11726825_at) / Fold change /veh VPS37D (11726825_at) / RFU C10orf10 (11716522_x_at) / Fold change /veh C10orf10 (11716522_x_at) / RFU KIR2DL2 /// KIR2DL4 /// KIR2DL5A /// KIR2DL5B /// KIR2DS1 /// KIR2DS2 /// KIR2DS3 /// KIR2DS4 /// KIR3DL3 /// KIR3DL3 /// KIR3DS1 (11738374_at) / Fold change /veh KIR2DL2 /// KIR2DL4 /// KIR2DL5A /// KIR2DL5B /// KIR2DS1 /// KIR2DS2 /// KIR2DS3 /// KIR2DS4 /// KIR3DL3 /// KIR3DL3 /// KIR3DS1 (11738374_at) / RFU C1QL1 (11718748_at) / Fold change /veh C1QL1 (11718748_at) / RFU TMPRSS4 (11747572_a_at) / Fold change /veh TMPRSS4 (11747572_a_at) / RFU HAMP (11756126_x_at) / Fold change /veh HAMP (11756126_x_at) / RFU RNFT2 (11725882_a_at) / Fold change /veh RNFT2 (11725882_a_at) / RFU NR4A2 (11747474_a_at) / Fold change /veh NR4A2 (11747474_a_at) / RFU ABCC12 (11746883_a_at) / Fold change /veh ABCC12 (11746883_a_at) / RFU TMEM136 (11760407_x_at) / Fold change /veh TMEM136 (11760407_x_at) / RFU CLDN22 /// WWC2 (11732394_at) / Fold change /veh CLDN22 /// WWC2 (11732394_at) / RFU HLA-DPB1 (11760878_x_at) / Fold change /veh HLA-DPB1 (11760878_x_at) / RFU SPINT1 (11716480_a_at) / Fold change /veh SPINT1 (11716480_a_at) / RFU GAP43 (11754022_s_at) / Fold change /veh GAP43 (11754022_s_at) / RFU A4GNT (11735810_at) / Fold change /veh A4GNT (11735810_at) / RFU PRB3 (11715151_x_at) / Fold change /veh PRB3 (11715151_x_at) / RFU TUBB4B (11761932_at) / Fold change /veh TUBB4B (11761932_at) / RFU CAPN14 (11732068_a_at) / Fold change /veh CAPN14 (11732068_a_at) / RFU TMCC2 (11721928_a_at) / Fold change /veh TMCC2 (11721928_a_at) / RFU IRGQ (11745062_a_at) / Fold change /veh IRGQ (11745062_a_at) / RFU FAM174B (11720279_a_at) / Fold change /veh FAM174B (11720279_a_at) / RFU TMPRSS4 (11748680_a_at) / Fold change /veh TMPRSS4 (11748680_a_at) / RFU FAM212B (11763350_a_at) / Fold change /veh FAM212B (11763350_a_at) / RFU PLEKHG5 (11743358_a_at) / Fold change /veh PLEKHG5 (11743358_a_at) / RFU ZSCAN30 (11745921_a_at) / Fold change /veh ZSCAN30 (11745921_a_at) / RFU CMKLR1 (11741424_a_at) / Fold change /veh CMKLR1 (11741424_a_at) / RFU LOC101060620 /// MAPK8IP1 (11723275_at) / Fold change /veh LOC101060620 /// MAPK8IP1 (11723275_at) / RFU SPTSSB (11747773_x_at) / Fold change /veh SPTSSB (11747773_x_at) / RFU PRSS12 (11739890_at) / Fold change /veh PRSS12 (11739890_at) / RFU BIN1 (11741810_x_at) / Fold change /veh BIN1 (11741810_x_at) / RFU WNT11 (11732464_a_at) / Fold change /veh WNT11 (11732464_a_at) / RFU C10orf10 (11716521_a_at) / Fold change /veh C10orf10 (11716521_a_at) / RFU C5orf56 (11738089_at) / Fold change /veh C5orf56 (11738089_at) / RFU CYB561 (11721691_x_at) / Fold change /veh CYB561 (11721691_x_at) / RFU ANKRD19P (11752326_a_at) / Fold change /veh ANKRD19P (11752326_a_at) / RFU OR2T12 /// OR2T33 /// OR2T8 (11738714_s_at) / Fold change /veh OR2T12 /// OR2T33 /// OR2T8 (11738714_s_at) / RFU VCAN (11748164_a_at) / Fold change /veh VCAN (11748164_a_at) / RFU JSRP1 (11732532_at) / Fold change /veh JSRP1 (11732532_at) / RFU KRTAP10-11 (11738290_x_at) / Fold change /veh KRTAP10-11 (11738290_x_at) / RFU MYO3A (11730013_a_at) / Fold change /veh MYO3A (11730013_a_at) / RFU EBF3 (11725865_a_at) / Fold change /veh EBF3 (11725865_a_at) / RFU CAMK2N1 (11719241_x_at) / Fold change /veh CAMK2N1 (11719241_x_at) / RFU C5orf56 (11738088_a_at) / Fold change /veh C5orf56 (11738088_a_at) / RFU OLFML3 (11715873_a_at) / Fold change /veh OLFML3 (11715873_a_at) / RFU LOC100653217 /// NTM (11731650_a_at) / Fold change /veh LOC100653217 /// NTM (11731650_a_at) / RFU MAPK11 (11762145_a_at) / Fold change /veh MAPK11 (11762145_a_at) / RFU FIZ1 (11724087_x_at) / Fold change /veh FIZ1 (11724087_x_at) / RFU OASL (11726364_x_at) / Fold change /veh OASL (11726364_x_at) / RFU SOX15 (11748057_x_at) / Fold change /veh SOX15 (11748057_x_at) / RFU CD79A (11719716_a_at) / Fold change /veh CD79A (11719716_a_at) / RFU HIST1H1D (11736915_at) / Fold change /veh HIST1H1D (11736915_at) / RFU CASKIN2 (11723855_a_at) / Fold change /veh CASKIN2 (11723855_a_at) / RFU LOC730098 (11760151_x_at) / Fold change /veh LOC730098 (11760151_x_at) / RFU OR4N2 (11742367_at) / Fold change /veh OR4N2 (11742367_at) / RFU PRRT2 (11749266_a_at) / Fold change /veh PRRT2 (11749266_a_at) / RFU SNX32 (11753110_a_at) / Fold change /veh SNX32 (11753110_a_at) / RFU CDHR5 (11726645_a_at) / Fold change /veh CDHR5 (11726645_a_at) / RFU RCAN1 (11760418_a_at) / Fold change /veh RCAN1 (11760418_a_at) / RFU FAM167A (11723789_a_at) / Fold change /veh FAM167A (11723789_a_at) / RFU FAM26E (11764081_at) / Fold change /veh FAM26E (11764081_at) / RFU ISYNA1 (11749810_s_at) / Fold change /veh ISYNA1 (11749810_s_at) / RFU ACY1 (11761880_at) / Fold change /veh ACY1 (11761880_at) / RFU 11764098_at / Fold change /veh 11764098_at / RFU SAMD14 (11745864_x_at) / Fold change /veh SAMD14 (11745864_x_at) / RFU NPB (11741838_a_at) / Fold change /veh NPB (11741838_a_at) / RFU TMPRSS6 (11731388_a_at) / Fold change /veh TMPRSS6 (11731388_a_at) / RFU KRTAP10-2 (11738614_at) / Fold change /veh KRTAP10-2 (11738614_at) / RFU ARHGAP8 /// PRR5-ARHGAP8 (11727945_x_at) / Fold change /veh ARHGAP8 /// PRR5-ARHGAP8 (11727945_x_at) / RFU KRTAP5-7 /// NADSYN1 (11734609_at) / Fold change /veh KRTAP5-7 /// NADSYN1 (11734609_at) / RFU RASL12 (11751679_a_at) / Fold change /veh RASL12 (11751679_a_at) / RFU CDKN2B (11736163_a_at) / Fold change /veh CDKN2B (11736163_a_at) / RFU PRF1 (11729649_at) / Fold change /veh PRF1 (11729649_at) / RFU, ZNF638 /// ZNF638-IT1 / Fold change vs veh, ZNF638 /// ZNF638-IT1 / RFU, PANK3 / Fold change vs veh, PANK3 / RFU, SH3YL1 / Fold change vs veh, SH3YL1 / RFU, ZEB2 / Fold change vs veh, ZEB2 / RFU, NRIP1 / Fold change vs veh, NRIP1 / RFU, PTTG1IP / Fold change vs veh, PTTG1IP / RFU, CAPN2 / Fold change vs veh, CAPN2 / RFU, MED14 / Fold change vs veh, MED14 / RFU, SNORA58 / Fold change vs veh, SNORA58 / RFU, C1orf63 / Fold change vs veh, C1orf63 / RFU, LRRFIP1 / Fold change vs veh, LRRFIP1 / RFU, NDUFAF7 / Fold change vs veh, NDUFAF7 / RFU, SLC12A2 / Fold change vs veh, SLC12A2 / RFU, IBTK / Fold change vs veh, IBTK / RFU, ESF1 / Fold change vs veh, ESF1 / Fold change vs veh, TMEM50B / RFU, TAOK1 / Fold change vs veh, TAOK1 / RFU, ACBD3 / Fold change vs veh, ACBD3 / RFU, TMA16 / Fold change vs veh, TMA16 / RFU, RWDD3 / Fold change vs veh, RWDD3 / RFU, BCAT1 / Fold change vs veh, BCAT1 / RFU, EDEM3 / Fold change vs veh, EDEM3 / RFU, TMEM33 / Fold change vs veh, TMEM33 / RFU, WDR75 / Fold change vs veh, WDR75 / RFU, AHCTF1 / Fold change vs veh, AHCTF1 / RFU, TFRC / Fold change vs veh, TFRC / RFU, ZDHHC17 / Fold change vs veh, ZDHHC17 / RFU, NOM1 / Fold change vs veh, NOM1 / RFU, ARL8B / Fold change vs veh, ARL8B / RFU, ZBTB11 / Fold change vs veh, ZBTB11 / RFU, TAMM41 / Fold change vs veh, TAMM41 / RFU, KIAA1704 /// LOC100996395 / Fold change vs veh, KIAA1704 /// LOC100996395 / RFU, ING1 / Fold change vs veh, ING1 / RFU, TRMT61B / Fold change vs veh, TRMT61B / RFU, FUBP3 / Fold change vs veh, FUBP3 / RFU, TP53 / Fold change vs veh, TP53 / RFU, TNKS2 / Fold change vs veh, TNKS2 / RFU, ZFP14 / Fold change vs veh, ZFP14 / RFU, ACTR2 / Fold change vs veh, ACTR2 / RFU, PPP3R1 / Fold change vs veh, PPP3R1 / RFU, PIK3R1 / Fold change vs veh, PIK3R1 / RFU, HNRNPA1 / Fold change vs veh, HNRNPA1 / RFU, RNF170 / Fold change vs veh, RNF170 / RFU, ZNF28 / Fold change vs veh, ZNF28 / RFU, RNGTT / Fold change vs veh, RNGTT / RFU, OGT / Fold change vs veh, OGT / RFU, BRD1 / Fold change vs veh, BRD1 / RFU, MARS / Fold change vs veh, MARS / RFU, ZNF655 / Fold change vs veh, ZNF655 / RFU, FAHD1 / Fold change vs veh, FAHD1 / RFU, BDP1 / Fold change vs veh, BDP1 / RFU, LRRCC1 / Fold change vs veh, LRRCC1 / RFU, ARID1A / Fold change vs veh, ARID1A / RFU, ZNF146 / Fold change vs veh, ZNF146 / RFU, ZNF330 / Fold change vs veh, ZNF330 / RFU, GPN3 / Fold change vs veh, GPN3 / RFU, C9orf123 / Fold change vs veh, C9orf123 / RFU, N4BP2L2 / Fold change vs veh, N4BP2L2 / RFU, ARFIP1 / Fold change vs veh, ARFIP1 / RFU, FAM179B / Fold change vs veh, FAM179B / RFU, BCL10 / Fold change vs veh, BCL10 / RFU, UHRF1BP1L / Fold change vs veh, UHRF1BP1L / RFU, BET1 / Fold change vs veh, BET1 / RFU, CNOT2 / Fold change vs veh, CNOT2 / RFU, ZNF268 / Fold change vs veh, ZNF268 / Fold change vs veh, ZNF507 / RFU, DGCR2 / Fold change vs veh, DGCR2 / RFU, WDSUB1 / Fold change vs veh, WDSUB1 / Fold change vs veh, HSP90B1 /// MIR3652 / RFU, ADSS / Fold change vs veh, ADSS / RFU, GK / Fold change vs veh, GK / RFU, ZNF148 / Fold change vs veh, ZNF148 / RFU, TAF9 / Fold change vs veh, TAF9 / RFU, SLC1A5 / Fold change vs veh, SLC1A5 / RFU, SLMO2 / Fold change vs veh, SLMO2 / RFU, ABCC4 / Fold change vs veh, ABCC4 / RFU, LOC101060439 /// RAP1B / Fold change vs veh, LOC101060439 /// RAP1B / RFU, RFX7 / Fold change vs veh, RFX7 / RFU, GTPBP10 / Fold change vs veh, GTPBP10 / RFU, CNEP1R1 / Fold change vs veh, CNEP1R1 / RFU, BIVM-ERCC5 /// ERCC5 / Fold change vs veh, BIVM-ERCC5 /// ERCC5 / RFU, ILF3 / Fold change vs veh, ILF3 / RFU 11762660_at / Fold change /veh 11762660_at / RFU VCAN (11757783_s_at) / Fold change /veh VCAN (11757783_s_at) / RFU DDX43 (11728927_at) / Fold change /veh DDX43 (11728927_at) / RFU KRT8 (11758188_x_at) / Fold change /veh KRT8 (11758188_x_at) / RFU NKD1 (11759106_at) / Fold change /veh NKD1 (11759106_at) / RFU SRD5A1 (11742802_a_at) / Fold change /veh SRD5A1 (11742802_a_at) / RFU TPSAB1 /// TPSB2 (11721975_s_at) / Fold change /veh TPSAB1 /// TPSB2 (11721975_s_at) / RFU GSTM3 (11746129_a_at) / Fold change /veh GSTM3 (11746129_a_at) / RFU IL23R (11737362_x_at) / Fold change /veh IL23R (11737362_x_at) / RFU TMEM51 (11727254_a_at) / Fold change /veh TMEM51 (11727254_a_at) / RFU PIWIL2 (11732686_x_at) / Fold change /veh PIWIL2 (11732686_x_at) / RFU ORM1 (11744905_x_at) / Fold change /veh ORM1 (11744905_x_at) / RFU CCDC152 (11743942_at) / Fold change /veh CCDC152 (11743942_at) / RFU ECM1 (11717891_a_at) / Fold change /veh ECM1 (11717891_a_at) / RFU IL23R (11748794_a_at) / Fold change /veh IL23R (11748794_a_at) / RFU TNFAIP8L3 (11732012_x_at) / Fold change /veh TNFAIP8L3 (11732012_x_at) / RFU MBOAT4 (11741988_at) / Fold change /veh MBOAT4 (11741988_at) / RFU 11764193_at / Fold change /veh 11764193_at / RFU TMEM53 (11763286_at) / Fold change /veh TMEM53 (11763286_at) / RFU MAGEB2 (11727129_at) / Fold change /veh MAGEB2 (11727129_at) / RFU TMEM200A (11744735_a_at) / Fold change /veh TMEM200A (11744735_a_at) / RFU CCDC152 (11751479_a_at) / Fold change /veh CCDC152 (11751479_a_at) / RFU FAM211A (11726209_a_at) / Fold change /veh FAM211A (11726209_a_at) / RFU RGS16 (11746705_a_at) / Fold change /veh RGS16 (11746705_a_at) / RFU VCAN (11755009_s_at) / Fold change /veh VCAN (11755009_s_at) / RFU RHOB (11743442_s_at) / Fold change /veh RHOB (11743442_s_at) / RFU RGS16 (11720943_a_at) / Fold change /veh RGS16 (11720943_a_at) / RFU RGS16 (11720944_at) / Fold change /veh RGS16 (11720944_at) / RFU, VPS4B / Fold change vs veh, VPS4B / RFU, CREB1 / Fold change vs veh, CREB1 / RFU, DNAJC13 / Fold change vs veh, DNAJC13 / RFU, GNAQ / Fold change vs veh, GNAQ / RFU, CDK5R1 / Fold change vs veh, CDK5R1 / RFU, ZRANB3 / Fold change vs veh, ZRANB3 / RFU, CUL4A / Fold change vs veh, CUL4A / RFU, CCNY / Fold change vs veh, CCNY / RFU, UFL1 / Fold change vs veh, UFL1 / RFU, COG3 / Fold change vs veh, COG3 / RFU, DIAPH2 / Fold change vs veh, DIAPH2 / RFU, SKA2 / Fold change vs veh, SKA2 / RFU, AFF3 / Fold change vs veh, AFF3 / RFU, LMF1 / Fold change vs veh, LMF1 / RFU, IPO11 / Fold change vs veh, IPO11 / RFU, DFFB / Fold change vs veh, DFFB / RFU, FOXP1 / Fold change vs veh, FOXP1 / RFU, CARD8 / Fold change vs veh, CARD8 / RFU, STRN3 / Fold change vs veh, STRN3 / RFU, ADK / Fold change vs veh, ADK / RFU, RASSF2 / Fold change vs veh, RASSF2 / RFU, WIPF1 / Fold change vs veh, WIPF1 / RFU, LARP1B / Fold change vs veh, LARP1B / RFU, RASA1 / Fold change vs veh, RASA1 / RFU, RB1 / Fold change vs veh, RB1 / RFU, PPFIA1 / Fold change vs veh, PPFIA1 / RFU, MAT2A / Fold change vs veh, MAT2A / RFU, CCT5 / Fold change vs veh, CCT5 / RFU, WDR92 / Fold change vs veh, WDR92 / RFU, CUX1 / Fold change vs veh, CUX1 / RFU, TTC7A / Fold change vs veh, TTC7A / RFU, TMEM135 / Fold change vs veh, TMEM135 / RFU, DEPTOR / Fold change vs veh, DEPTOR / RFU, CPM / Fold change vs veh, CPM / RFU, DNAJB6 / Fold change vs veh, DNAJB6 / RFU, CACNA2D3 / Fold change vs veh, CACNA2D3 / RFU, DTX4 / Fold change vs veh, DTX4 / RFU, TFCP2 / Fold change vs veh, TFCP2 / RFU, GMCL1 /// GMCL1P1 / Fold change vs veh, GMCL1 /// GMCL1P1 / RFU, AEBP2 / Fold change vs veh, AEBP2 / RFU, SNHG1 /// SNORD22 /// SNORD25 /// SNORD26 /// SNORD27 /// SNORD28 /// SNORD29 /// SNORD31 / Fold change vs veh, SNHG1 /// SNORD22 /// SNORD25 /// SNORD26 /// SNORD27 /// SNORD28 /// SNORD29 /// SNORD31 / Fold change (Aza/veh), C12orf56 (ProbeSet 11735607_a_at) / Fold change (ACY-1035/veh), C12orf56 (ProbeSet 11735607_a_at) / Fold change (Aza/veh), FGFR1OP (ProbeSet 11751329_s_at) / Fold change (ACY-1035/veh), FGFR1OP (ProbeSet 11751329_s_at) / Fold change (Aza/veh), VPS36 (ProbeSet 11739960_a_at) / Fold change (ACY-1035/veh), VPS36 (ProbeSet 11739960_a_at) / RFU SYPL1 (11715823_x_at) / Fold change /veh SYPL1 (11715823_x_at) / RFU IGFBP7 (11715501_s_at) / Fold change /veh IGFBP7 (11715501_s_at) / RFU REEP3 (11722064_at) / Fold change /veh REEP3 (11722064_at) / RFU IGLL1 (11728026_x_at) / Fold change /veh IGLL1 (11728026_x_at): dose or concentration left out as unconfirmed
Settings: MV-4-11 cells, 48 hours

Nc1ccc(-c2cccs2)cc1NC(=O)c1ccc2c(c1)cc(C1CC1)n2CCN1CCOCC1 [ACY-1035]
Fold change /veh ISYNA1 (11749810_s_at): 0.96
